Test results: US20060069132A1, “Azolecarboxamide herbicides” (priority 2004, published 2006)

Legend:
lambsquarters = experiment: Test C pre-/postemergence herbicide test; format: in vivo, Chenopodium album; conditions: for Lambsquarters plant response rating: 500 g ai/ha
In short: (§1)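 Emerged plants at the 1- to 4-leaf stage (2–18 cm), or freshly planted seeds, received test chemicals in a non-phytotoxic solvent mixture with surfactant. Response was visually scored against controls after 12 to 14 days in the greenhouse, on a 0 (no effect) to 100 (complete control) scale.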

eastern black nightshade = experiment: Test C pre-/postemergence herbicide test; format: in vivo, Solanum ptycanthum; conditions: for Plant response rating (0 = no effect, 100 = complete control), Nightshade: 62 g ai/ha; for Plant response rating (0 = no effect, 100 = complete control), Nightshade / Plant response rating, Nightshade: preemergence; for Plant response rating, Nightshade: 250 g ai/ha, scale 0 to 100 (0 no effect, 100 complete control), visual, 12 to 14 days; for Nightshade plant response rating: Preemergence, 500 g ai/ha, scale 0 to 100, 0 no effect, 100 complete control
In short: as §1

goosegrass = experiment: Test C pre-/postemergence herbicide test; format: in vivo, Eleusine indica; conditions: for Goosegrass plant response rating: 500 g ai/ha
In short: as §1

cocklebur = experiment: Test C pre-/postemergence herbicide test; format: in vivo, Xanthium strumarium; conditions: for Cocklebur plant response rating: 500 g ai/ha
In short: as §1

corn = experiment: Test C pre-/postemergence herbicide test; format: in vivo, Zea mays; conditions: for Corn plant response rating: 500 g ai/ha
In short: as §1

rice = experiment: Test B flooded paddy test; format: in vivo, Oryza sativa; conditions: 1000 g ai/ha, visual rating, scale 0 to 100 (0 no effect, 100 complete control), 13 to 15 days
In short: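 Scale 0–100: zero equals no visible effect, 100 complete control, judged by eye relative to controls. Timing: 13 to 15 days in greenhouse post-treatment. Growth stage at spraying: two leaves (paddy) or one to four leaves, 2–18 cm (postemergence).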

velvetleaf = experiment: Test C pre-/postemergence herbicide test; format: in vivo, Abutilon theophrasti; conditions: for Velvetleaf plant response rating: 500 g ai/ha
In short: as §1

ducksalad [1] = experiment: Test C flooded paddy test; format: in vivo, Heteranthera limosa; conditions: for Plant response rating, Ducksalad: visual rating after 12 to 14 days
barnyardgrass = experiment: Test B flooded paddy test; format: in vivo, Echinochloa crus-galli; conditions: 1000 g ai/ha, visual rating, scale 0 to 100 (0 no effect, 100 complete control), 13 to 15 days
In short: (§2)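 Formulated test chemicals went onto postemergence plants measuring 2 to 18 cm, at one to four leaves. For the paddy assay, species had reached two leaves. Scoring took place 13–15 days later by eye, relative to untreated plants, using 0 for no effect up to 100 for full control.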

johnsongrass = experiment: Test C pre-/postemergence herbicide test; format: in vivo, Sorghum halepense; conditions: for Johnsongrass plant response rating: 500 g ai/ha
In short: as §1

ducksalad [2] = experiment: Test B flooded paddy test; format: in vivo, Heteranthera limosa; conditions: 1000 g ai/ha, visual rating, scale 0 to 100 (0 no effect, 100 complete control), 13 to 15 days
In short: as §2

[3] = system: smallflower umbrella sedge; experiment: Test C flooded paddy test; format: in vivo, Cyperus difformis; conditions: for Plant response rating, Sedge, Umbrella: visual rating after 12 to 14 days
[4] = 125 g ai/ha, scale 0-100, preemergence
[5] = 250 g ai/ha, scale 0 to 100 (0 no effect, 100 complete control), visual, 12 to 14 days, preemergence
[6] = Postemergence, 250 g ai/ha, scale 0 to 100, 0 no effect, 100 complete control
[7] = Preemergence, scale 0 to 100, 0 no effect, 100 complete control
[8] = postemergence, 125 g ai/ha, scale 0 to 100
[9] = postemergence, 62 g ai/ha, scale 0 to 100
[10] = Postemergence, 125 g ai/ha, scale 0 to 100, 0 no effect, 100 complete control
[11] = 62 g ai/ha, scale 0 to 100 (0 no effect, 100 complete control)
[12] = 125 g ai/ha, scale of 0 to 100, 0 is no effect, 100 is complete control
[13] = 250 g ai/ha, scale 0 to 100 (0 no effect, 100 complete control)
[14] = 500 g ai/ha, scale 0 to 100 (0 no effect, 100 complete control)

CCNC(=O)c1cccc(NC(=O)c2cc(C(C)(C)C)nn2CC(F)(F)F)c1 [Compound 31]
Plant response rating (0 = no effect, 100 = complete control), Lambsquarters (lambsquarters; 62 g ai/ha, preemergence): 90
Plant response rating, Lambsquarters (lambsquarters; [4]): 100
Plant response rating, Lambsquarters (lambsquarters; [5]): 100
Lambsquarters plant response rating (lambsquarters; Postemergence, scale 0 to 100): 90
Plant response rating, Lambsquarters (lambsquarters; [6]): 90
Lambsquarters plant response rating (lambsquarters; [7]): 100
Plant response rating, Lambsquarters (lambsquarters; [8]): 80
Plant response rating, Lambsquarters (lambsquarters; [9]): 80
Plant response rating (0 = no effect, 100 = complete control), Nightshade (eastern black nightshade): 90
Plant response rating, Nightshade (eastern black nightshade): 100
Nightshade plant response rating (eastern black nightshade): 100
Plant response rating (0 = no effect, 100 = complete control), Goosegrass (goosegrass; 62 g ai/ha, preemergence): 30
Plant response rating, Goosegrass (goosegrass; [4]): 30
Plant response rating, Goosegrass (goosegrass; [5]): 40
Goosegrass plant response rating (goosegrass; Postemergence, scale 0 to 100): 40
Plant response rating, Goosegrass (goosegrass; [10]): 30
Plant response rating, Goosegrass (goosegrass; [6]): 40
Goosegrass plant response rating (goosegrass; [7]): 90
Plant response rating, Goosegrass (goosegrass; [9]): 30
Plant response rating (0 = no effect, 100 = complete control), Cocklebur (cocklebur; 62 g ai/ha, preemergence): 0
Plant response rating, Cocklebur (cocklebur; [4]): 20
Plant response rating, Cocklebur (cocklebur; [5]): 40
Cocklebur plant response rating (cocklebur; Postemergence, scale 0 to 100): 60
Plant response rating, Cocklebur (cocklebur; [10]): 40
Plant response rating, Cocklebur (cocklebur; [6]): 40
Plant response rating, Cocklebur (cocklebur; [9]): 40
Plant response rating (0 = no effect, 100 = complete control), Corn (corn; 62 g ai/ha, preemergence): 0
Plant response rating, Corn (corn; [4]): 20
Corn plant response rating (corn; Postemergence, scale 0 to 100): 50
Plant response rating, Corn (corn; [10]): 40
Plant response rating, Corn (corn; [6]): 40
Plant response rating, Corn (corn; [9]): 40
Rice plant response rating (rice): 80
Plant response rating (0 = no effect, 100 = complete control), Velvetleaf (velvetleaf; 62 g ai/ha, preemergence): 20
Plant response rating, Velvetleaf (velvetleaf; [5]): 100
Velvetleaf plant response rating (velvetleaf; Postemergence, scale 0 to 100): 70
Plant response rating, Velvetleaf (velvetleaf; [6]): 70
Velvetleaf plant response rating (velvetleaf; [7]): 100
Plant response rating, Velvetleaf (velvetleaf; [8]): 60
Plant response rating, Velvetleaf (velvetleaf; [9]): 50
Ducksalad plant response rating (ducksalad [1]; [11]): 10
Ducksalad plant response rating (ducksalad [1]; [12]): 20
Plant response rating, Ducksalad (ducksalad [1]; [13]): 40
Plant response rating, Ducksalad (ducksalad [1]; [14]): 60
Barnyardgrass plant response rating (barnyardgrass): 80
Plant response rating (0 = no effect, 100 = complete control), Johnsongrass (johnsongrass; 62 g ai/ha, preemergence): 0
Plant response rating, Johnsongrass (johnsongrass; [4]): 30
Plant response rating, Johnsongrass (johnsongrass; [5]): 70
Johnsongrass plant response rating (johnsongrass; Postemergence, scale 0 to 100): 30
Plant response rating, Johnsongrass (johnsongrass; [10]): 20
Plant response rating, Johnsongrass (johnsongrass; [6]): 30
Johnsongrass plant response rating (johnsongrass; [7]): 90
Plant response rating, Johnsongrass (johnsongrass; [9]): 20
Ducksalad plant response rating (ducksalad [2]): 80
Sedge, Umbrella plant response rating [3, 11]: 0
Sedge, Umbrella plant response rating [3, 12]: 35
Plant response rating, Sedge, Umbrella [3, 13]: 40
Plant response rating, Sedge, Umbrella [3, 14]: 55

C=Cn1nc(C(C)(C)C)cc1C(=O)Nc1cccc(C(=O)N(CC)CC)c1 [Compound 34]
Plant response rating (0 = no effect, 100 = complete control), Lambsquarters (lambsquarters; 62 g ai/ha, preemergence): 90
Plant response rating, Lambsquarters (lambsquarters; [4]): 100
Plant response rating, Lambsquarters (lambsquarters; [5]): 100
Lambsquarters plant response rating (lambsquarters; Postemergence, scale 0 to 100): 100
Plant response rating, Lambsquarters (lambsquarters; [6]): 100
Lambsquarters plant response rating (lambsquarters; [7]): 100
Plant response rating, Lambsquarters (lambsquarters; [8]): 80
Plant response rating, Lambsquarters (lambsquarters; [9]): 40
Plant response rating (0 = no effect, 100 = complete control), Nightshade (eastern black nightshade): 10
Plant response rating, Nightshade (eastern black nightshade): 90
Nightshade plant response rating (eastern black nightshade): 100
Plant response rating (0 = no effect, 100 = complete control), Goosegrass (goosegrass; 62 g ai/ha, preemergence): 20
Plant response rating, Goosegrass (goosegrass; [4]): 80
Plant response rating, Goosegrass (goosegrass; [5]): 100
Goosegrass plant response rating (goosegrass; Postemergence, scale 0 to 100): 40
Plant response rating, Goosegrass (goosegrass; [10]): 40
Plant response rating, Goosegrass (goosegrass; [6]): 40
Goosegrass plant response rating (goosegrass; [7]): 100
Plant response rating, Goosegrass (goosegrass; [9]): 30
Plant response rating (0 = no effect, 100 = complete control), Cocklebur (cocklebur; 62 g ai/ha, preemergence): 0
Plant response rating, Cocklebur (cocklebur; [4]): 0
Plant response rating, Cocklebur (cocklebur; [5]): 0
Cocklebur plant response rating (cocklebur; Postemergence, scale 0 to 100): 70
Plant response rating, Cocklebur (cocklebur; [10]): 20
Plant response rating, Cocklebur (cocklebur; [6]): 50
Cocklebur plant response rating (cocklebur; [7]): 0
Plant response rating, Cocklebur (cocklebur; [9]): 20
Plant response rating (0 = no effect, 100 = complete control), Corn (corn; 62 g ai/ha, preemergence): 0
Plant response rating, Corn (corn; [4]): 0
Plant response rating, Corn (corn; [5]): 0
Corn plant response rating (corn; Postemergence, scale 0 to 100): 70
Plant response rating, Corn (corn; [10]): 30
Plant response rating, Corn (corn; [6]): 50
Corn plant response rating (corn; [7]): 0
Plant response rating, Corn (corn; [9]): 20
Rice plant response rating (rice): 50
Plant response rating (0 = no effect, 100 = complete control), Velvetleaf (velvetleaf; 62 g ai/ha, preemergence): 0
Plant response rating, Velvetleaf (velvetleaf; [5]): 90
Velvetleaf plant response rating (velvetleaf; Postemergence, scale 0 to 100): 70
Plant response rating, Velvetleaf (velvetleaf; [6]): 70
Velvetleaf plant response rating (velvetleaf; [7]): 100
Plant response rating, Velvetleaf (velvetleaf; [8]): 70
Plant response rating, Velvetleaf (velvetleaf; [9]): 20
Ducksalad plant response rating (ducksalad [1]; [11]): 15
Ducksalad plant response rating (ducksalad [1]; [12]): 25
Plant response rating, Ducksalad (ducksalad [1]; [13]): 25
Plant response rating, Ducksalad (ducksalad [1]; [14]): 75
Barnyardgrass plant response rating (barnyardgrass): 80
Plant response rating (0 = no effect, 100 = complete control), Johnsongrass (johnsongrass; 62 g ai/ha, preemergence): 50
Plant response rating, Johnsongrass (johnsongrass; [4]): 80
Plant response rating, Johnsongrass (johnsongrass; [5]): 100
Johnsongrass plant response rating (johnsongrass; Postemergence, scale 0 to 100): 80
Plant response rating, Johnsongrass (johnsongrass; [10]): 70
Plant response rating, Johnsongrass (johnsongrass; [6]): 70
Johnsongrass plant response rating (johnsongrass; [7]): 100
Plant response rating, Johnsongrass (johnsongrass; [9]): 70
Ducksalad plant response rating (ducksalad [2]): 80
Sedge, Umbrella plant response rating [3, 11]: 50
Sedge, Umbrella plant response rating [3, 12]: 80
Plant response rating, Sedge, Umbrella [3, 13]: 80
Plant response rating, Sedge, Umbrella [3, 14]: 90
